In patent US20250263424A1, “KRAS INHIBITORS” (Bristol-Myers Squibb Company, priority 2022, published 2025):

Target: Recombinant GMPPNP-loaded KRAS G12C (KRAS-G12C(ON), active form) (Homo sapiens, UniProt P01116, G12C)
Assay: KRAS G12C RAF Disruption Assay (HTRF)
Format: biochemical
Conditions: GMPPNP-loaded KRAS G12C 5 nM, GST-RAF1 RBD 9 nM, values given in μM, read-out: KRASG12C RAF Disruption Assay (IC50)
Protocol: This is a functional assay that measures activity of compounds against […]., the active form of KRAS G12C. Recombinant GMPPNP-loaded KRAS G12C (5 nM) was treated with compound at room temperature for 20 minutes in assay buffer (50 mM Tris pH 7.5, 100 mM NaCl, 1 mM MgCl2, 1 mM DTT, 100 μg/ml BSA). Recombinant GST-RAF1 RBD (9 nM) was added, and the reaction mixture was incubated for 20 minutes. SA-Tb (0.25 nM) was added, and the reaction mixture was incubated for 3 hours. HTRF signal was measured (PerkinElmer Envision), the signal ratio (λem 520/λem 495) was calculated, and IC50 values were calculated from the dose-response curve.

Chain of Recombinant GMPPNP-loaded KRAS G12C (KRAS-G12C(ON), active form) (P01116 1-188 isoform P01116-2 G12C): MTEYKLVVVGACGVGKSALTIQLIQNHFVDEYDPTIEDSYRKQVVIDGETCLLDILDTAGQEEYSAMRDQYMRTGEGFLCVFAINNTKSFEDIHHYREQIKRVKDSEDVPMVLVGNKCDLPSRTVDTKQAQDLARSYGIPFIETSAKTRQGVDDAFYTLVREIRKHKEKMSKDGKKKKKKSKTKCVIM

SMILES | IC50 [µM]
Cc1cc(N)nc(-c2c(Cl)cc3c(N4CC5CCC(C4)N5C(=O)/C(F)=C/c4nccs4)nc(OCC4(CN5CCCCC5)CC4)nc3c2F)c1C(F)(F)F [Example 11, (Z)-1-((1R,5S)-3-((7M)-7-(6-amino-4-methyl-3-(trifluoromethyl)pyridin-2-yl)-6-chloro-8-fluoro-2-((1-(piperidin-1-ylmethyl)cyclopropyl)methoxy)quinazolin-4-yl)-3,8-diazabicyclo[3.2.1]octan-8-yl)-2-fluoro-3-(thiazol-2-yl)prop-2-en-1-one] | 5.3
Cc1cc(N)nc(-c2c(Cl)cc3c(N4CC5CC(C4)N5C(=O)/C(F)=C/c4nccs4)nc(OC[C@]45CCCN4C[C@H](F)C5)nc3c2F)c1C(F)(F)F [Example 12, (Z)-1-(3-((7M)-7-(6-amino-4-methyl-3-(trifluoromethyl)pyridin-2-yl)-6-chloro-8-fluoro-2-(((2R,7aR)-2-fluorotetrahydro-1H-pyrrolizin-7a(5H)-yl)methoxy)quinazolin-4-yl)-3,6-diazabicyclo[3.1.1]heptan-6-yl)-2-fluoro-3-(thiazol-2-yl)prop-2-en-1-one] | 9.2
Cc1cc(N)nc(-c2c(Cl)cc3c(N4C[C@H](C)N(C(=O)/C(F)=C/c5nccs5)C[C@H]4C)nc(OCC45CCCN4CC(F)C5)nc3c2F)c1C(F)(F)F (stereo partly drawn) [Example 19, (Z)-1-((2S,5R)-4-((7M)-7-(6-amino-4-methyl-3-(trifluoromethyl)pyridin-2-yl)-6-chloro-8-fluoro-2-((2-fluorotetrahydro-1H-pyrrolizin-7a(5H)-yl)methoxy)quinazolin-4-yl)-2,5-dimethylpiperazin-1-yl)-2-fluoro-3-(thiazol-2-yl)prop-2-en-1-one] | 3.2
Cc1cc(N)nc(-c2c(Cl)cc3c(N4CC5CCC(C4)N5C(=O)/C(F)=C/c4ccccn4)nc(OC[C@]45CCCN4C[C@H](F)C5)nc3c2F)c1C(F)(F)F (single isomer, unassigned) [Example 5] | 2.7
Cc1cc(N)nc(-c2c(Cl)cc3c(N4CC5CN(C(=O)/C(F)=C/c6nccs6)C5C4)nc(OC[C@]45CCCN4C[C@H](F)C5)nc3c2F)c1C(F)(F)F (single isomer, unassigned) [Example 15, Isomer 1] | 93.8
O=C(/C(F)=C/c1nccs1)N1[C@@H]2CC[C@H]1CN(c1nc(OC[C@@]34CCCN3C[C@H](F)C4)nc3c(F)c(-c4cccc5cccc(Cl)c45)ccc13)C2 [Example 10, (Z)-1-((1R,5S)-3-(7-(8-chloronaphthalen-1-yl)-8-fluoro-2-(((2R,7aS)-2-fluorotetrahydro-1H-pyrrolizin-7a(5H)-yl)methoxy)quinazolin-4-yl)-3,8-diazabicyclo[3.2.1]octan-8-yl)-2-fluoro-3-(thiazol-2-yl)prop-2-en-1-one] | 93

Same assay, conditions: GMPPNP-loaded KRAS G12C 5 nM, GST-RAF1 RBD 9 nM, values in nM, read-out: KRASG12C RAF Disruption Assay (IC50)

SMILES | IC50 [µM]
Cc1cc(N)nc(-c2c(Cl)cc3c(N4CCC(CNC(=O)C(F)=Cc5ccccn5)CC4)nc(OCC4CCCN4C)nc3c2F)c1C(F)(F)F [Example 44, (2Z)-N-({1-[(7M)-7-[6-amino-4-methyl-3-(trifluoromethyl)pyridin-2-yl]-6-chloro-8-fluoro-2-{[(2S)-1-methylpyrrolidin-2-yl]methoxy}quinazolin-4-yl]piperidin-4-yl}methyl)-2-fluoro-3-(pyridin-2-yl)prop-2-enamide] | 0.35
CN1CCC[C@H]1COc1nc(N2CCN(C(=O)/C(F)=C/c3nccs3)[C@@H](CC#N)C2)c2ccc(-c3cccc4cccc(Cl)c34)c(F)c2n1 [Example 33, 2-((S)-1-((Z)-2-fluoro-3-(thiazol-2-yl)acryloyl)-4-(8-fluoro-7-(8-chloronaphthalen-1-yl)-2-(((S)-1-methylpyrrolidin-2-yl)methoxy)quinazolin-4-yl)piperazin-2-yl)acetonitrile] | 0.076
N#CC[C@H]1CN(c2nc(OC[C@@]34CCCN3C[C@H](F)C4)nc3c(F)c(-c4cc(O)cc5ccccc45)ccc23)CCN1C(=O)/C(F)=C/c1ncccn1 [Example 40, 2-((S)-4-(8-fluoro-2-(((2R,7aS)-2-fluorotetrahydro-1H-pyrrolizin-7a(5H)-yl)methoxy)-7-(3-hydroxynaphthalen-1-yl)quinazolin-4-yl)-1-((Z)-2-fluoro-3-(pyrimidin-2-yl)acryloyl)piperazin-2-yl)acetonitrile] | 0.011
CN1CCC[C@H]1COc1nc(N2CCN(C(=O)/C(F)=C/c3ncccn3)[C@@H](CC#N)C2)c2ccc(-c3c(O)cccc3F)c(F)c2n1 [Example 55, 2-((2S)-1-((Z)-2-fluoro-3-(pyrimidin-2-yl)acryloyl)-4-(8-fluoro-7-(2-fluoro-6-hydroxyphenyl)-2-(((S)-1-methylpyrrolidin-2-yl)methoxy)quinazolin-4-yl)piperazin-2-yl)acetonitrile] | 1
C#Cc1cccc2cccc(-c3ccc4c(N5CCN(C(=O)/C(F)=C/c6cnccn6)[C@@H](CC#N)C5)nc(OC[C@@]56CCCN5C[C@H](F)C6)nc4c3F)c12 [Example 87, 2-((S)-4-(7-(8-ethynylnaphthalen-1-yl)-8-fluoro-2-(((2R,7aS)-2-fluorotetrahydro-1H-pyrrolizin-7a(5H)-yl)methoxy)quinazolin-4-yl)-1-((Z)-2-fluoro-3-(pyrazin-2-yl)acryloyl)piperazin-2-yl)acetonitrile] | 0.042
Cc1cc(N)nc(-c2c(Cl)cc3c(N4C[C@H]5CC[C@@H]4[C@@H]5NC(=O)/C(F)=C/c4ccccn4)nc(OC[C@]45CCCN4C[C@H](F)C5)nc3c2F)c1C(F)(F)F [Example 45, (2Z)-N-[(1R,4R,7R)-2-[(7M)-2-{[(2R,7aR)-2-fluoro-hexahydro-1H-pyrrolizin-7a-yl]methoxy}-7-[6-amino-4-methyl-3-(trifluoromethyl)pyridin-2-yl]-6-chloro-8-fluoroquinazolin-4-yl]-2-azabicyclo[2.2.1]heptan-7-yl]-2-fluoro-3-(pyridin-2-yl)prop-2-enamide] | 0.048
N#CC[C@H]1CN(c2nc(OC[C@@]34CCCN3C[C@H](F)C4)nc3c(F)c(-c4cccc5cccc(C#N)c45)ccc23)CCN1C(=O)/C(F)=C/c1ccccn1 [Example 78, 8-(4-((S)-3-(cyanomethyl)-4-((Z)-2-fluoro-3-(pyridin-2-yl)acryloyl)piperazin-1-yl)-8-fluoro-2-(((2R,7aS)-2-fluorotetrahydro-1H-pyrrolizin-7a(5H)-yl)methoxy)quinazolin-7-yl)-1-naphthonitrile] | 0.24
C#Cc1cccc2cccc(-c3ccc4c(N5CCN(C(=O)/C(F)=C/c6nccs6)C[C@@H]5C)nc(OC[C@@]56CCCN5C[C@H](F)C6)nc4c3F)c12 [Example 89, (Z)-1-((S)-4-(7-(8-ethynylnaphthalen-1-yl)-8-fluoro-2-(((2R,7aS)-2-fluorotetrahydro-1H-pyrrolizin-7a(5H)-yl)methoxy)quinazolin-4-yl)-3-methylpiperazin-1-yl)-2-fluoro-3-(thiazol-2-yl)prop-2-en-1-one] | 0.38
CN1CCC[C@H]1COc1nc(N2CCN(C(=O)/C(F)=C/c3ccccn3)[C@@H](CC#N)C2)c2ccc(-c3cccc4cccc(C#N)c34)c(F)c2n1 [Example 79, 8-(4-((S)-3-(cyanomethyl)-4-((Z)-2-fluoro-3-(pyridin-2-yl)acryloyl)piperazin-1-yl)-8-fluoro-2-(((S)-1-methylpyrrolidin-2-yl)methoxy)quinazolin-7-yl)-1-naphthonitrile] | 1.6
COc1ccc(Cl)cc1-c1ccc2c(N3CCN(C(=O)/C(F)=C/c4ncccn4)[C@@H](CC#N)C3)nc(OC[C@@H]3CCCN3C)nc2c1F [Example 63, 2-((S)-4-(7-(5-chloro-2-methoxyphenyl)-8-fluoro-2-(((S)-1-methylpyrrolidin-2-yl)methoxy)quinazolin-4-yl)-1-((Z)-2-fluoro-3-(pyrimidin-2-yl)acryloyl)piperazin-2-yl)acetonitrile] | 9.8
Cc1cccc(/C=C(\F)C(=O)N2CCN(c3nc(OC[C@@H]4CCCN4C)nc4c(F)c(-c5cc(O)cc6ccccc56)ccc34)C[C@@H]2CC#N)n1 [Example 34, 2-((S)-1-((Z)-2-fluoro-3-(6-methylpyridin-2-yl)acryloyl)-4-(8-fluoro-7-(3-hydroxynaphthalen-1-yl)-2-(((S)-1-methylpyrrolidin-2-yl)methoxy)quinazolin-4-yl)piperazin-2-yl)acetonitrile] | 0.027
C#Cc1c(F)ccc2cc(O)cc(-c3ccc4c(N5C[C@H]6CC[C@@H](C5)N6C(=O)/C(F)=C/c5cccc(C)n5)nc(OC[C@@H]5CCCN5C)nc4c3F)c12 [Example 35, (Z)-1-((1R,5S)-3-(7-(8-ethynyl-7-fluoro-3-hydroxynaphthalen-1-yl)-8-fluoro-2-(((S)-1-methylpyrrolidin-2-yl)methoxy)quinazolin-4-yl)-3,8-diazabicyclo[3.2.1]octan-8-yl)-2-fluoro-3-(6-methylpyridin-2-yl)prop-2-en-1-one] | 0.29
CN1CCC[C@H]1COc1nc(N2CCN(C(=O)/C(F)=C/c3nccs3)[C@@H](CC#N)C2)c2ccc(-c3cc(Cl)ccc3OC(F)(F)F)c(F)c2n1 [Example 66, 2-((S)-4-(7-(5-chloro-2-(trifluoromethoxy)phenyl)-8-fluoro-2-(((S)-1-methylpyrrolidin-2-yl)methoxy)quinazolin-4-yl)-1-((Z)-2-fluoro-3-(thiazol-2-yl)acryloyl)piperazin-2-yl)acetonitrile] | 3.2
